Test [1] has as its target PI3-Kα (Mus musculus (Mouse), UniProt P42337). Nature of the test: PI3-Kα Biochemical Assay (fluorescence polarization kinase assay). The method in brief:
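Co-expressed mouse p110/p85 PI3-Kα (4 nM stock) acting on PI(4,5)P2 (60 μM stock) with ATP/MgCl2 in HEPES pH 7.4 buffer, 35 min at room temperature, then EDTA stop. PI(3,4,5)P3 product detected by displacement of TAMRA-PIP3 from Grip1 PH domain (FP, 535/580 nm). IC50 from sigmoidal fit of % inhibition.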

The test system of test [2] is PI3-K in BT20 cells (phosphorylation of AKT at serine 473). Nature of the test: PI3-Kα Cellular Assay (AKT Ser473 phosphorylation ELISA in BT20 cells). Format: cell-based, human. The note with it: Homo sapiens, BT-20, pAKT Ser473 ELISA, 1 hour incubation. The method in brief: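 Cells seeded overnight in 0.5% FBS, then exposed 1 h at 37 °C to an 11-concentration 1:3 dilution series, in duplicate.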
(In an ELISA, binding on a coated surface is turned into a signal by an enzyme label.)

Sequence of PI3-Kα (P42337 whole entry, the tested form may be a part): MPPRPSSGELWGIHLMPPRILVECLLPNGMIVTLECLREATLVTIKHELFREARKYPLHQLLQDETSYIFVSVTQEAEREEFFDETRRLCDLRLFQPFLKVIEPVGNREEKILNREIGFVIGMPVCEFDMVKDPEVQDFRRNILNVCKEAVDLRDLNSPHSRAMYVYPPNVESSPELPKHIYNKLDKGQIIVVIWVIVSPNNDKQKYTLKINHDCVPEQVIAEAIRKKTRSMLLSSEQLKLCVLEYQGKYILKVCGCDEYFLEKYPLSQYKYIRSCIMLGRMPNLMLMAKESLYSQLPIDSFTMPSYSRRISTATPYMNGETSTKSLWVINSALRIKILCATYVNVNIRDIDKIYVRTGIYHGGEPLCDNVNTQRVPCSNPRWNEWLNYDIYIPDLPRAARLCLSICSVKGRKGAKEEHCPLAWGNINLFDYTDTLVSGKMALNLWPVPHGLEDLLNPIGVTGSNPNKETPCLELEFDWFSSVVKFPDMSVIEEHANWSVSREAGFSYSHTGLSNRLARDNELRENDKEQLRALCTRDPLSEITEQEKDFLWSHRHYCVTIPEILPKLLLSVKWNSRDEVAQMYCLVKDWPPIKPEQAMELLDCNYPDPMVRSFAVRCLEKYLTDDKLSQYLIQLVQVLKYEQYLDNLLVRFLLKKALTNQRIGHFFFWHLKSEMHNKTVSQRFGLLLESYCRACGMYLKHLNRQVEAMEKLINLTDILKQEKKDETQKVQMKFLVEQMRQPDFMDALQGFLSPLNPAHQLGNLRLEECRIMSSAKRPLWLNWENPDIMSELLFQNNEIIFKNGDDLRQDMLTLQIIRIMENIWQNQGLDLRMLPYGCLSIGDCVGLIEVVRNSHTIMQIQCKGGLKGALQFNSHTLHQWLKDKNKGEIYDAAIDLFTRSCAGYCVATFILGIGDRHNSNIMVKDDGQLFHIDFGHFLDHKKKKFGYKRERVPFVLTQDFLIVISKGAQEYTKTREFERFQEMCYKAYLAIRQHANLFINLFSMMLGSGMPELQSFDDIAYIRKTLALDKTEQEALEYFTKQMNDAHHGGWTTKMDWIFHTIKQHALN
Sequence of PI3-Kα (P26450 whole entry partner, the tested form may be a part): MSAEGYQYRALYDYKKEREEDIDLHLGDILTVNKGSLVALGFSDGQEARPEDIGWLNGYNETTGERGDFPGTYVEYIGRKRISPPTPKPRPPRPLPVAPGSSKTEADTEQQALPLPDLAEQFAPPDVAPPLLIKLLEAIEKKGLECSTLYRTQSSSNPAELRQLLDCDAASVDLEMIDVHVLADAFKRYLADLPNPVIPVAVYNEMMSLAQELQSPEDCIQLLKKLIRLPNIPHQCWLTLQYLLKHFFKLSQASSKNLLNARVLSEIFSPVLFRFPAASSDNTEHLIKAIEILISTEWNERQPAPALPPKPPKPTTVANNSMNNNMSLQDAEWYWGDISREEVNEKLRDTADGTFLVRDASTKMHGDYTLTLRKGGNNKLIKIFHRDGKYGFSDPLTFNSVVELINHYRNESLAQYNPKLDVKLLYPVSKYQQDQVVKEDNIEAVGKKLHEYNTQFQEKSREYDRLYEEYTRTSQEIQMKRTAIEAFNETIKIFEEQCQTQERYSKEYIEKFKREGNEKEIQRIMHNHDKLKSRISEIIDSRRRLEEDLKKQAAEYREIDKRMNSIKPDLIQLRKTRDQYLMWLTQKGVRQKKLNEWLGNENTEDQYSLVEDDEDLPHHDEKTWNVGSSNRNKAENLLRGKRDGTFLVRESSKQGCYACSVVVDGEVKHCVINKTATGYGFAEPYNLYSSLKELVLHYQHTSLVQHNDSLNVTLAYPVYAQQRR

Broadly, the IC50 is the midpoint of a concentration-inhibition curve. Read a high IC50 as a need for much substance. As to `Cc1nc(N)nc2c1cc(-c1cnc3ccccc3c1)c(=O)n2CC(C)(C)O` [Compound 173, 2-amino-8-(2-hydroxy-2-methylpropyl)-4-methyl-6-quinolin-3-ylpyrido[2,3-d]pyrimidin-7(8H)-one], the IC50 is 270 nM in test [1] and 322 nM in test [2].

`COc1ccc(-c2cc3c(C)nc(N)nc3n(C3CCC(=O)CC3)c2=O)cn1` [Compound 175, 2-amino-6-(6-methoxypyridin-3-yl)-4-methyl-8-(4-oxocyclohexyl)pyrido[2,3-d]pyrimidin-7(8H)-one]: the IC50 in test [1] was determined as 4.3 nM; in test [2], 19.3 nM.

Consider `CO[C@H]1CC[C@H](n2c(=O)c(Br)cc3c(C)nc(N)nc32)CC1` [Compound 178], for which the IC50 in test [1] is 31 nM; in test [2], 64 nM.

In the case of `COc1ccc(-c2cc3c(C)nc(N)nc3n([C@H]3CC[C@H](OC)CC3)c2=O)cn1` [Compound 179, 2-Amino-8-(trans-4-methoxycyclohexyl)-6-(6-methoxypyridin-3-yl)-4-methylpyrido[2,3-d]pyrimidin-7(8H)-one], the IC50 in test [1] was determined as 3.9 nM; in test [2], 7.37 nM.

`CO[C@H]1CC[C@H](n2c(=O)c(-c3ccc(N(C)C)nc3)cc3c(C)nc(N)nc32)CC1` [Compound 182, 2-amino-6-[6-(dimethylamino)pyridin-3-yl]-8-(trans-4-methoxycyclohexyl)-4-methylpyrido[2,3-d]pyrimidin-7(8H)-one]: the values for the IC50 in test [1] and in test [2] were 6.2 nM and 10.1 nM, respectively.

For `Cc1nc(N)nc2c1cc(Br)c(=O)n2C1CCC(=O)CC1` [Compound 184, 2-amino-6-bromo-4-methyl-8-(4-oxocyclohexyl)pyrido[2,3-d]pyrimidin-7(8H)-one], the IC50 was determined as 110 nM in test [1] and 211 nM in test [2].

For the compound `Cc1nc(N)nc2c1cc(-c1cn[nH]c1)c(=O)n2C1CCC(C)(O)CC1` (centres unmarked) [Compound 185, 2-amino-8-(4-hydroxy-4-methylcyclohexyl)-4-methyl-6-(1H-pyrazol-4-yl)pyrido[2,3-d]pyrimidin-7(8H)-one], the IC50 worked out at 18 nM in test [1] and 15.2 nM in test [2].

Take `Cc1nc(N)nc2c1cc(-c1cc[nH]n1)c(=O)n2[C@H]1CC[C@H](O)CC1` [Compound 186, 2-Amino-8-((trans)-4-hydroxycyclohexyl)-4-methyl-6-(1H-pyrazol-3-yl)pyrido[2,3-d]pyrimidin-7(8H)-one]: the IC50 in test [1] was 10 nM; in test [2], 25.2 nM.

For the compound `CO[C@H]1CC[C@H](n2c(=O)c(-c3cc[nH]n3)cc3c(C)nc(N)nc32)CC1` [Compound 187, 2-amino-8-(trans-4-methoxycyclohexyl)-4-methyl-6-(1H-pyrazol-3-yl)pyrido[2,3-d]pyrimidin-7(8H)-one], the values for the IC50 in test [1] and in test [2] were 9.5 nM and 17.2 nM, respectively.

Turning to `Cc1nc(N)nc2c1cc(-c1ccc(OC(C)C)nc1)c(=O)n2[C@H]1CC[C@H](O)CC1` [Compound 188, 2-amino-8(trans-4-hydroxycyclohexyl)-6-(6-isopropoxypyridin-3-yl)-4-methylpyrido[2,3-d]pyrimidin-7(8H)-one], the IC50 in test [1] was 9.4 nM; in test [2], 71.8 nM.

As for `CCOc1ccc(-c2cc3c(C)nc(N)nc3n([C@H]3CC[C@H](O)CC3)c2=O)cn1` [Compound 189, 2-amino-6-(6-ethoxypyridin-3-yl)-8-(trans-4-hydroxycyclohexyl)-4-methylpyrido[2,3-d]pyrimidin-7(8H)-one], the IC50 was found to be 2.7 nM in test [1] and 21.2 nM in test [2].

With `Cc1nc(N)nc2c1cc(-c1ccc(C#N)nc1)c(=O)n2[C@H]1CC[C@H](O)CC1` [Compound 190, 5-[2-amino-8-(trans-4-hydroxycyclohexyl)-4-methyl-7-oxo-7,8-dihydropyrido[2,3-d]pyrimidin-6-yl]pyridine-2-carbonitrile], the results for the concentration for half-maximal inhibition (IC50) in test [1] and in test [2] were 470 nM and 2690 nM, respectively.

Regarding `Cc1nc(N)nc2c1cc(-c1cnn(C(=O)OC(C)(C)C)c1)c(=O)n2N1CCCC1` [Compound 192, Tert-butyl-4-(2-amino-4-methyl-7-oxo-8-(pyrrolidin-1-yl)-7,8-dihydropyrido[2,3-d]pyrimidin-6-yl)-1H-pyrazole-1-carboxylate], the IC50 was determined as 93 nM in test [1] and 5.08 nM in test [2].

In the case of `Cc1nc(N)nc2c1cc(-c1cn[nH]c1)c(=O)n2CC(F)(F)F` [Compound 197, 2-amino-4-methyl-6-(1H-pyrazol-4-yl)-8-(2,2,2-trifluoroethyl)pyrido[2,3-d]pyrididin-7(8H)-one], the results for the IC50 in test [1] and in test [2] were 188 nM and 236 nM, respectively.

`COc1ccc(-c2cc3c(C)nc(N)nc3n(CC(F)(F)F)c2=O)cn1` [Compound 198, 2-amino-6-(6-methoxypyridin-3-yl)-4-methyl-8-(2,2,2-trifluoroethyl)pyrido[2,3-d]pyrimidin-7(8H)-one]: the half-inhibitory concentration (IC50) in test [1] was found to be 130 nM; in test [2] it was 262 nM.

As for `Cc1nc(N)nc2c1cc(-c1cn[nH]c1)c(=O)n2C1CCOCC1` [Compound 199, 2-amino-4-methyl-6-(1H-pyrazol-4-yl)-8-(tetrahydro-2H-pyran-4-yl)pyrido[2,3-d]pyrimidin-7(8H)-one], the half-maximal inhibitory concentration (IC50) in test [1] turned out to be 18.5 nM; in test [2] it was 19.9 nM.

Turning to `Cc1nc(N)nc2c1cc(-c1cnc3[nH]ccc3c1)c(=O)n2C1CCOCC1` [Compound 201, 2-amino-4-methyl-6-(1H-pyrrolo[2,3-b]pyridin-5-yl)-8-(tetrahydro-2H-pyran-4-yl)pyrido[2,3-d]pyrimidin-7(8H)-one], the results for the IC50 in test [1] and in test [2] were 3.7 nM and 15.3 nM, respectively.

Take `Cc1nc(N)nc2c1cc(Br)c(=O)n2C1CCOC1` (centres unmarked) [Compound 202, 2-amino-6-bromo-4-methyl-8-(tetrahydrofuran-3-yl)pyrido[2,3-d]pyrimidin-7(8H)-one]: the IC50 in test [1] amounted to 230 nM; in test [2], 1670 nM.

With `Cc1nc(N)nc2c1cc(-c1cn[nH]c1)c(=O)n2C1CCOC1` (centres unmarked) [Compound 203], the concentration for half-maximal inhibition (IC50) in test [1] was 20 nM; in test [2] it was 25.8 nM.

Take `Cc1nc(N)nc2c1cc(-c1cnc3[nH]ccc3c1)c(=O)n2C1CCC1` [Compound 207, 2-amino-8-cyclobutyl-4-methyl-6-(1H-pyrrolo[2,3-d]pyridin-5-yl)pyrido[2,3-d]pyrimidin-7(8H)-one]: the IC50 was 2 nM in test [1] and 11.9 nM in test [2].

For the compound `COc1ccc(-c2cc3c(C)nc(N)nc3n(C(C)C)c2=O)cn1` [Compound 209, 2-amino-8-isopropyl-6-(6-methoxypyridin-3-yl)-4-methylpyrido[2,3-d]pyrimidin-7(8H)-one], the IC50 stood at 11 nM in test [1] and 64 nM in test [2].

With `Cc1nc(N)nc2c1cc(-c1cnc3[nH]ccc3c1)c(=O)n2C(C)C` [Compound 210, 2-amino-8-isopropyl-4-methyl-6-(1H-pyrrolo[2,3-d]pyridin-5-yl)pyrido[2,3-d]pyrimidin-7(8H)-one], the IC50 came out at 2.3 nM in test [1] and 6.77 nM in test [2].

Turning to `Cc1nc(N)nc2c1cc(-c1cnc3[nH]ccc3c1)c(=O)n2C1CC1` [Compound 213, 2-amino-8-cyclopropyl-4-methyl-6-(1H-pyrrolo[2,3-b]pyridin-5-yl)pyrido[2,3-d]pyrimidin-7(8H)-one], the IC50 in test [1] is 17 nM; in test [2], 138 nM.

Regarding `CNc1nc(C)c2cc(Br)c(=O)n(CC3CCOC3)c2n1` (centres unmarked) [Compound 214, 6-bromo-4-methyl-2-(methylamino)-8-((tetrahydrofuran-3-yl)methyl)pyrido[2,3-d]pyrimidin-7(8H)-one], the IC50 in test [1] is 48 nM; in test [2], 594 nM.

Consider `CNc1nc(C)c2cc(-c3cn[nH]c3)c(=O)n(CC3CCOC3)c2n1` (centres unmarked) [Compound 215, 4-methyl-2-(methylamino)-6-(1H-pyrazol-4-yl)-8-((tetrahydrofuran-3-yl)methyl)pyrido[2,3-d]pyrimidin-7(8H)-one], for which the IC50 in test [1] turned out to be 6 nM; in test [2], 22.1 nM.

For `CNc1nc(C)c2cc(-c3ccc(OC)nc3)c(=O)n(CC3CCOC3)c2n1` (centres unmarked) [Compound 216, 6-(6-methoxypyridin-3-yl)-4-methyl-2-(methylamino)-8-((tetrahydrofuran-3-yl)methyl)pyrido[2,3-d]pyrimidin-7(8H)-one], the IC50 in test [1] came out at 4.6 nM; in test [2], 45.6 nM.

Consider `CNc1nc(C)c2cc(-c3cnc4[nH]ccc4c3)c(=O)n(CC3CCOC3)c2n1` (centres unmarked) [Compound 217, 4-methyl-2-(methylamino)-6-(1H-pyrrolo[2,3-b]pyridin-5-yl)-8-((tetrahydrofuran-3-yl)methyl)pyrido[2,3-d]pyrimidin-7(8H)-one], for which the IC50 in test [1] is 1.6 nM; in test [2], 13.5 nM.

Take `Cc1nc(N)nc2c1cc(Br)c(=O)n2CC1CCOC1` (centres unmarked) [Compound 218, 2-amino-6-bromo-4-methyl-8-((tetrahydrofuran-3-yl)methyl)pyrido[2,3-d]pyrimidin-7(8H)-one]: the IC50 stood at 94 nM in test [1] and 1020 nM in test [2].

For the compound `Cc1nc(N)nc2c1cc(-c1cnc3[nH]ccc3c1)c(=O)n2CC1CCOC1` (centres unmarked) [Compound 221, 2-amino-4-methyl-6-(1H-pyrrolo[2,3-b]pyridin-5-yl)-8-((tetrahydrofuran-3-yl)methyl)pyrido[2,3-d]pyrimidin-7(8H)-one], the IC50 in test [1] came to 2.8 nM; in test [2] it was 57.8 nM.

`Cc1nc(N)nc2c1cc(Br)c(=O)n2CC1CCCO1` (centres unmarked) [Compound 222, 2-amino-6-bromo-4-methyl-8-((tetrahydrofuran-2-yl)methyl)pyrido[2,3-d]pyrimidin-7(8H)-one]: the IC50 in test [1] was 100 nM; in test [2], 2130 nM.

As to `COc1ccc(-c2cc3c(C)nc(N)nc3n(CC3CCCO3)c2=O)cn1` (centres unmarked) [Compound 224, 2-amino-6-(6-methoxypyridin-3-yl)-4-methyl-8-((tetrahydrofuran-2-yl)methyl)pyrido[2,3-d]pyrimidin-7(8H)-one], the results for the IC50 in test [1] and in test [2] were 21 nM and 120 nM, respectively.

For the origin of these results see patent publication US8633204B2 (Pfizer Inc., priority 2006, dated 2014).
